How the values were obtained:
Salmonella typhimurium = experiment: Antibacterial activity, paper disc method
[1] = system: human bronchial epithelial cells (BEAS-2B); experiment: Cytotoxicity, MTT, BEAS-2B; conditions: 24 hours treatment
Bacillus subtilis = experiment: Antibacterial activity, paper disc method
Escherichia coli = experiment: Antibacterial activity, paper disc method
Staphylococcus aureus = experiment: Antibacterial activity, paper disc method
[2] = system: human epithelial keratinocyte cells (HaCaT); experiment: Cytotoxicity, MTT, HaCaT; conditions: 24 hours treatment
[3] = system: human monocyte cells (THP-1); experiment: Cytotoxicity, MTT, THP-1; conditions: THP-1, 24 hours treatment
Pseudomonas aeruginosa = experiment: Antibacterial activity, paper disc method
Streptococcus mutans = experiment: Antibacterial activity, paper disc method
[4] = system: Staphylococcus epidermidis; experiment: Antibacterial activity, paper disc method

Compound: CCCCCCCCCCCCCCCCCC(=O)[O-].[Na+] [Example P-3, Sodium stearate]
- MIC (Salmonella typhimurium): ≥100 μg/50 μl
- IC50 value (%) [1]: 0.00969%
- MIC (Bacillus subtilis): ≥100 μg/50 μl
- MIC (Escherichia coli): ≥100 μg/50 μl
- MIC (Staphylococcus aureus): ≥100 μg/50 μl
- IC50 value (%) [2]: 0.005292%
- IC50 value (%) [3]: 0.4165%
- MIC (Pseudomonas aeruginosa): ≥100 μg/50 μl
- MIC (Streptococcus mutans): ≥100 μg/50 μl
- MIC [4]: ≥100 μg/50 μl

Reference: US20250089707A1, “ECO-FRIENDLY QUARANTINE COMPOSITION HAVING FUNCTION OF KILLING PHOSPHOLIPID ENVELOPED VIRUS” (priority 2022, published 2025)
